Values after ≈ are worked out from the molar mass of the structure shown. Active and inactive are the calls of the source. No cut-off for these calls is given here.
Experiments:
Staphylococcus aureus [1] = test: In vivo antimicrobial activity against Staphylococcus aureus USA300 infected in Caenorhabditis elegans AU37 nematodes assessed as viability of nematodes incubated for 5 days by susceptibility test; format: functional; conditions: USA300, 120 h, time 5 day
Cell membrane [2] = test: Induction of membrane damage in Staphylococcus aureus ATCC 700699 assessed as cell surface damage at 1 to 4 times of MIC measured after 30 mins by Scanning electron microscopy; format: subcellular
Staphylococcus aureus [3] = test: Antimicrobial activity against clinical isolate Staphylococcus aureus Smu21 assessed as inhibition of growth measured after 20 to 24 hrs incubation by CLSI method; format: functional; conditions: time 20-24 hrs
Cell membrane [4] = test: Induction of membrane permeability in Staphylococcus aureus ATCC 700699 assessed as increase in fluorescence at 0.5 to 2 times of MIC incubated for 15 mins measured for 1 hr by propidium iodide/real time fluorescence based flow cytometry; format: subcellular; conditions: time 75.0 min
Staphylococcus aureus [5] = test: Antimicrobial activity against antibiotic-susceptible Staphylococcus aureus ATCC 25923 assessed as inhibition of biofilm formation by measuring prevention of turbidity after 24 hrs incubation by Real-time monitoring method; format: functional
Staphylococcus aureus [6] = test: Antimicrobial activity against clinical isolate Staphylococcus aureus Smu109 assessed as inhibition of growth measured after 20 to 24 hrs incubation by CLSI method; format: functional; conditions: time 20-24 hrs
[7] = Toxicity in Caenorhabditis elegans AU37 assessed as survival at 4 ug/ml measured for 4 days; conditions: 96 h, dose 4 µg/ml, time 4 day
Staphylococcus aureus [8] = test: Antimicrobial activity against Staphylococcus aureus UAB159 assessed as inhibition of growth measured after 20 to 24 hrs incubation by CLSI method; format: functional; conditions: time 20-24 hrs
Bacillus subtilis = test: Antimicrobial activity against antibiotic-resistant Bacillus subtilis ATCC 6623 assessed as inhibition of visible growth measured after 20 to 24 hrs incubation by CLSI method; format: functional; conditions: time 20-24 hrs
Staphylococcus aureus [9] = test: Antimicrobial activity against Staphylococcus aureus ATCC 25923 assessed as inhibition of biofilm formation by measuring prevention of turbidity after 24 hrs incubation by Real-time monitoring method; format: functional
[10] = Toxicity in Caenorhabditis elegans AU37 assessed as survival at 20 ug/ml measured for 4 days; conditions: at 20 µg/mL, time 4 day
Staphylococcus aureus [11] = test: Antimicrobial activity against antibiotic-susceptible Staphylococcus aureus ATCC 25923 assessed as inhibition of biofilm formation on plastic coverslips at 0.5 times of MIC measured after 24 hrs by electron microscopy; format: functional, organism-based
Staphylococcus aureus [12] = test: Antimicrobial activity against methicilline-resistant Staphylococcus aureus ATCC 700699 persisters assessed as reduction in initial persister concentration at 16 times of MIC concentration measured for 6 hrs by Persisters time course assay; format: functional, organism-based
Staphylococcus aureus [13] = test: Antimicrobial activity against clinical isolate Staphylococcus aureus Smu9 assessed as inhibition of growth measured after 20 to 24 hrs incubation by CLSI method; format: functional; conditions: time 20-24 hrs
Staphylococcus aureus [14] = test: Antimicrobial activity against methicilline-resistant Staphylococcus aureus ATCC 700699 persisters assessed as reduction in initial persister concentration at 8 times of MIC concentration measured for 8 hrs by Persisters time course assay; format: functional
Erythrocyte [15] = test: Hemolytic activity in sheep red blood cells assessed as hemolysis at 16 to 32 ug/ml incubated for 30 mins relative to control; format: toxicity, cell-based, Ovis aries; conditions: 0.5 h, dose 16-32 µg/ml
Staphylococcus aureus [16] = test: Antimicrobial activity against clinical isolate Staphylococcus aureus Smu57 assessed as inhibition of growth measured after 20 to 24 hrs incubation by CLSI method; format: functional; conditions: time 20-24 hrs
[17] = test system: Panel NCI-60 (60 carcinoma cell lines); test: Cytotoxicity against human panel NCI-60 (60 carcinoma cell lines)cells assessed as cell viability at 10 uM measured after 24 hrs by resazurin assay; format: functional, cell-based
HEK293 = test: Cytotoxicity against human HEK293 cells assessed as cell viability measured after 24 hrs by resazurin assay; format: toxicity, cell-based
Cell membrane [18] = test: Induction of membrane permeability in Staphylococcus aureus ATCC 700699 assessed as increase in fluorescence intensity at 4 times of MIC incubated for 15 mins measured for 1 hr by propidium iodide/real time fluorescence based flow cytometry Rvb = 3.5); conditions: time 75.0 min
Staphylococcus aureus [19] = test: Antimicrobial activity against antibiotic-resistant Staphylococcus aureus ATCC 33591 assessed as inhibition of visible growth measured after 20 to 24 hrs incubation by CLSI method; format: functional; conditions: time 20-24 hrs
Staphylococcus aureus [20] = test: Antimicrobial activity against antibiotic-resistant Staphylococcus aureus ATCC 33592 assessed as inhibition of visible growth measured after 20 to 24 hrs incubation by CLSI method; format: functional; conditions: time 20-24 hrs
Staphylococcus aureus [21] = test: In vivo antimicrobial activity against Staphylococcus aureus Newman infected in Caenorhabditis elegans AU37 nematodes assessed as viability of nematodes incubated for 5 days by susceptibility test; format: functional; conditions: 120 h, time 5 day
Cell membrane [22] = test: Induction of membrane permeability in Staphylococcus aureus ATCC 700699 assessed as increase in fluorescence intensity at 2 times of MIC incubated for 15 mins measured for 1 hr by propidium iodide/real time fluorescence based flow cytometry Rvb = 3.5); format: subcellular; conditions: time 75.0 min
Cell membrane [23] = test: Induction of membrane permeability in Staphylococcus aureus ATCC 700699 assessed as increase in fluorescence intensity at 1 times of MIC incubated for 15 mins measured for 1 hr by propidium iodide/real time fluorescence based flow cytometry Rvb = 3.5); conditions: time 75.0 min
Enterococcus faecium [24] = test: Antimicrobial activity against Enterococcus faecium […] assessed as inhibition of biofilm formation after 24 hrs incubation by Real-time monitoring method; format: functional
Cell membrane [25] = test: Induction of membrane permeability in Staphylococcus aureus ATCC 700699 assessed as increase in fluorescence at 8 times of MIC incubated for 15 mins measured for 1 hr by propidium iodide/real time fluorescence based flow cytometry; format: subcellular
Staphylococcus aureus [26] = test: In vivo antimicrobial activity against Staphylococcus aureus UAMS-1 infected in Caenorhabditis elegans AU37 nematodes assessed as viability of nematodes incubated for 5 days by susceptibility test; format: functional; conditions: UAMS-1, 120 h, time 5 day
Staphylococcus aureus [27] = test: Antimicrobial activity against methicilline-resistant Staphylococcus aureus ATCC 700699 persisters assessed as reduction in initial persister concentration at 2 times of MIC concentration measured for 2 to 8 hrs by Persisters time course assay; format: functional, organism-based; conditions: time 2-8 hrs
Enterococcus faecalis [28] = test: Antimicrobial activity against Enterococcus faecalis ATCC 29212 assessed as inhibition of biofilm formation by measuring prevention of turbidity after 24 hrs incubation by Real-time monitoring method; format: functional
Enterococcus faecalis [29] = test: Antimicrobial activity against antibiotic-susceptible Enterococcus faecalis ATCC 29212 assessed as inhibition of biofilm formation by measuring prevention of turbidity after 24 hrs incubation by Real-time monitoring method; format: functional
Staphylococcus aureus [30] = test: Antimicrobial activity against Staphylococcus aureus ATCC 25923 assessed as inhibition of visible growth measured after 20 to 24 hrs incubation by CLSI method; format: functional; conditions: time 20-24 hrs
Erythrocyte [31] = test: Hemolytic activity in sheep red blood cells assessed as hemolysis at 64 ug/ml incubated for 30 mins relative to control; format: toxicity, cell-based, Ovis aries; conditions: 0.5 h, at 64 µg/mL
Staphylococcus aureus [32] = test: Antimicrobial activity against clinical isolate Staphylococcus aureus Smu81 assessed as inhibition of growth measured after 20 to 24 hrs incubation by CLSI method; format: functional; conditions: time 20-24 hrs
Staphylococcus aureus [33] = test: Antimicrobial activity against antibiotic-resistant Staphylococcus aureus ATCC BAA-2312 assessed as inhibition of visible growth measured after 20 to 24 hrs incubation by CLSI method; format: functional; conditions: time 20-24 hrs
Staphylococcus aureus [34] = test: Antimicrobial activity against Staphylococcus aureus ATCC 25923 assessed as eradication of biofilm measured after 24 hrs incubation by Calgary method; format: functional
Enterococcus faecalis [35] = test: Antimicrobial activity against antibiotic-resistant Enterococcus faecalis ATCC 51299 assessed as inhibition of visible growth measured after 20 to 24 hrs incubation by CLSI method; format: functional; conditions: time 20-24 hrs
Staphylococcus aureus [36] = test: Antimicrobial activity against antibiotic-susceptible Staphylococcus aureus ATCC 25923 assessed as inhibition of biofilm formation after 24 hrs incubation by Real-time monitoring method; format: functional
Enterococcus faecium [37] = test: Antimicrobial activity against antibiotic-resistant Enterococcus faecium ATCC 700221 assessed as inhibition of visible growth measured after 20 to 24 hrs incubation by CLSI method; format: functional; conditions: time 20-24 hrs

Q: For `O=C(O)c1ccc(-n2cc(CNc3cc(Br)cc(C(F)(F)F)c3)c(-c3ccc(F)c(F)c3)n2)cc1`, which MIC (Staphylococcus aureus [1]) is on record?
A: 1 µg/mL (≈ 1.81 µM)

Q: What about the Activity (Cell membrane [2]) of the same compound?
A: Active

Q: And the MIC (Staphylococcus aureus [3])?
A: 2 µg/mL (≈ 3.62 µM)

Q: What about the Activity (Cell membrane [4]) of the same compound?
A: inactive

Q: What about the MBBC (Staphylococcus aureus [5]) of the same compound?
A: 8 µg/mL

Q: And the MIC (Staphylococcus aureus [6])?
A: 2 µg/mL (≈ 3.62 µM)

Q: And the Activity [7]?
A: Non-Toxic

Q: What about the MIC (Staphylococcus aureus [8]) of the same compound?
A: 4 µg/mL (≈ 7.24 µM)

Q: And the MIC (Bacillus subtilis)?
A: 0.5 µg/mL (≈ 0.905 µM)

Q: And the MIC (Staphylococcus aureus [9])?
A: 2 µg/mL (≈ 3.62 µM)

Q: What about the survival at 96 h, 20 ug/ml [10] of the same compound?
A: > 80%

Q: And the Activity (Staphylococcus aureus [11])?
A: Active

Q: And the Activity (Staphylococcus aureus [12])?
A: Active

Q: What about the MIC (Staphylococcus aureus [13]) of the same compound?
A: 2 µg/mL (≈ 3.62 µM)

Q: And the “log(activity)” value (Staphylococcus aureus [14])?
A: 6

Q: What about the Activity (Erythrocyte [15]) of the same compound?
A: Non-Toxic

Q: What about the MIC (Staphylococcus aureus [16]) of the same compound?
A: 2 µg/mL (≈ 3.62 µM)

Q: And the Activity [17]?
A: inactive

Q: And the IC50 (HEK293)?
A: 27 µg/mL (≈ 48.9 µM)

Q: And the Activity (Cell membrane [18])?
A: 96.7%

Q: What about the MIC (Staphylococcus aureus [19]) of the same compound?
A: 1 µg/mL (≈ 1.81 µM)

Q: What about the MIC (Staphylococcus aureus [20]) of the same compound?
A: 1 µg/mL (≈ 1.81 µM)

Q: What about the MIC (Staphylococcus aureus [21]) of the same compound?
A: 1 µg/mL (≈ 1.81 µM)

Q: And the Activity (Cell membrane [22])?
A: 32.8%

Q: And the Activity (Cell membrane [23])?
A: 18.5%

Q: What about the MBIC (Enterococcus faecium [24]) of the same compound?
A: 4 µg/mL

Q: And the Activity (Cell membrane [25])?
A: inactive

Q: And the MIC (Staphylococcus aureus [26])?
A: 1 µg/mL (≈ 1.81 µM)

Q: And the Activity (Staphylococcus aureus [27])?
A: inactive

Q: And the MIC (Enterococcus faecalis [28])?
A: 4 µg/mL (≈ 7.24 µM)

Q: And the MBBC (Enterococcus faecalis [29])?
A: 8 µg/mL

Q: And the MIC (Staphylococcus aureus [30])?
A: 1 µg/mL (≈ 1.81 µM)

Q: What about the Activity (Erythrocyte [31]) of the same compound?
A: < 10%

Q: And the MIC (Staphylococcus aureus [32])?
A: 4 µg/mL (≈ 7.24 µM)

Q: What about the MIC (Staphylococcus aureus [33]) of the same compound?
A: 1 µg/mL (≈ 1.81 µM)

Q: With `CN[C@H](CC(C)C)C(=O)N[C@H]1C(=O)N[C@@H](CC(N)=O)C(=O)N[C@H]2C(=O)N[C@H]3C(=O)N[C@H](C(=O)N[C@H](C(=O)O)c4cc(O)cc(O)c4-c4cc3ccc4O)[C@H](O)c3ccc(c(Cl)c3)Oc3cc2cc(c3O[C@@H]2O[C@H](CO)[C@@H](O)[C@H](O)[C@H]2O[C@H]2C[C@](C)(N)[C@H](O)[C@H](C)O2)Oc2ccc(cc2Cl)[C@H]1O` [VANCOMYCIN] as the compound, how does the MBBC (Staphylococcus aureus [5]) read?
A: >16 µg/mL

Q: What about the MIC (Bacillus subtilis) of the same compound?
A: 0.25 µg/mL (≈ 0.173 µM)

Q: And the MIC (Staphylococcus aureus [9])?
A: 8 µg/mL (≈ 5.52 µM)

Q: What about the Activity (Staphylococcus aureus [11]) of the same compound?
A: Active

Q: And the MBEC (Staphylococcus aureus [34])?
A: >32 µg/mL

Q: What about the MIC (Enterococcus faecalis [35]) of the same compound?
A: > 32 µg/mL

Q: What about the MBIC (Enterococcus faecium [24]) of the same compound?
A: >16 µg/mL

Q: What about the MBBC (Enterococcus faecalis [29]) of the same compound?
A: >16 µg/mL

Q: What about the MBIC (Staphylococcus aureus [36]) of the same compound?
A: >16 µg/mL

Q: What about the MIC (Enterococcus faecium [37]) of the same compound?
A: > 32 µg/mL

Reference: ChEMBL document CHEMBL5365500, “Development and Antibacterial Properties of 4-[4-(Anilinomethyl)-3-phenylpyrazol-1-yl]benzoic Acid Derivatives as Fatty Acid Biosynthesis Inhibitors” (J Med Chem, 2023)
